In patent US20260007133A1, “HERBICIDAL COMPOSITION COMPRISING AZINE COMPOUNDS” (BASF SE, priority 2022, published 2026):
Like-named read-outs stand apart in the source and are kept apart here.

Key:
Format in all cases: in vivo
Geranium pusillum [1] = test: Greenhouse pre-emergence (PRE) herbicidal test on GERPU; details: Geranium pusillum, pre-emergence; for inhibition at 4 g/ha: use rate 4 gai/ha
Procedure, shortened: (§1)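 Visual rating on a 0 (normal growth) to 100 (no emergence or above-ground kill) scale at 20 DAT. Treatment was pre-emergence spray of aqueous suspension/emulsion right after sowing into loamy sand with ~3.0% humus; covered until rooted, grown at 10-25° C or 20-35° C depending on species.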

Setaria viridis = test: Greenhouse pre-emergence (PRE) herbicidal test on SETVI; details: Setaria viridis, pre-emergence, 480 h; PRE, SETVI, use rate 2 gai/ha, 20 DAT; read-out: % activity
Procedure, shortened: as §1

Euphorbia heterophylla [2] = test: Greenhouse pre-emergence (PRE) herbicidal test on EPHHL
Procedure, shortened: (§2)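 Scoring ran from 0 (normal growth) to 100 (no emergence or above-ground parts fully destroyed) and was done 20 DAT. Application was pre-emergent in pots of loamy sand (~3.0% humus) sown per species. Plants grew at 10-25° C or 20-35° C by species.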

Abutilon theophrasti [3] = test: Greenhouse post-emergence (POST) herbicidal test on ABUTH; details: Abutilon theophrasti, post-emergence, POST, ABUTH; for inhibition at 2 g/ha: use rate 2 gai/ha, read-out: % activity
Procedure, shortened: (§3)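 For this test, compounds formulated as a 5% by weight emulsion concentrate were diluted into spray liquor and applied post-emergence. Species were kept at 10-25° C or 20-35° C and injury was scored at 20 DAT on a 0–100 scale.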

Digitaria sanguinalis = test: Greenhouse post-emergence (POST) herbicidal test on DIGSA; details: Digitaria sanguinalis, post-emergence; for inhibition at 2 g/ha: use rate 2 gai/ha; for inhibition at 2 g/ha / inhibition at 1 g/ha: read-out: % activity; for inhibition at 4 g/ha: use rate 4 gai/ha; for inhibition at 1 g/ha: use rate 1 gai/ha
Procedure, shortened: as §3

Lolium multiflorum = test: Greenhouse pre-emergence (PRE) herbicidal test on LOLMU; details: Lolium multiflorum, pre-emergence; for inhibition at 1 g/ha: use rate 1 gai/ha
Procedure, shortened: as §2

Alopecurus myosuroides = test: Greenhouse pre-emergence (PRE) herbicidal test on ALOMY
Procedure, shortened: as §2

Geranium pusillum [4] = test: Greenhouse post-emergence (POST) herbicidal test on GERPU; details: Geranium pusillum, post-emergence; for inhibition at 4 g/ha: use rate 4 gai/ha
Procedure, shortened: as §3

Abutilon theophrasti [5] = test: Greenhouse pre-emergence (PRE) herbicidal test on ABUTH; details: Abutilon theophrasti, pre-emergence
Procedure, shortened: as §2

Galium aparine = test: Greenhouse pre-emergence (PRE) herbicidal test on GALAP; details: Galium aparine, pre-emergence; PRE; GALAP; use rate 1 gai/ha
Description: The culture containers used were plastic pots containing loamy sand with approximately 3.0% of humus as substrate. The seeds of the test plants were sown separately for each species.
For the pre-emergence treatment, the active compounds, suspended or emulsified in water, were applied directly after sowing by means of finely distributing nozzles. The containers were irrigated gently to promote germination and growth and subsequently covered with transparent plastic hoods until the plants had rooted. This cover caused uniform germination of the test plants unless this was adversely affected by the active compounds.
Depending on the species, the plants were kept at 10-25° C. and 20-35° C., respectively.
The test period extended over 2 to 4 weeks. During this time, the plants were tended and their response to the individual treatments was evaluated.
Evaluation was carried out using a scale from 0 to 100. 100 means no emergence of the plants, or complete destruction of at least the above-ground parts, and 0 means no damage or normal course of growth. A good herbicidal activity is given at values of at least 70, and very good herbicidal activity is given at values of at least 85.
If not stated differently, the respective components A and B, and if appropriate, C were formulated as a 5% by weight strength emulsion concentrate and, with addition of the amount of solvent system, introduced into the spray liquor used for applying the active compound.
As indicated application was either post emergent (POST) at the respective growth stage (GS) of the weed (BBCH code), or pre-emergent (PRE).
Assessment was 20 days after treatment (DAT).

Euphorbia heterophylla [6] = test: Greenhouse post-emergence (POST) herbicidal test on EPHHL; details: Euphorbia heterophylla, post-emergence, POST, EPHHL; for inhibition at 2 g/ha: use rate 2 gai/ha, read-out: % activity
Procedure, shortened: as §3

[7] = 480 h, use rate 4 gai/ha, 20 DAT

## COc1c(F)cc(F)c(F)c1Nc1nc(N)nc(C(C)(C)F)n1 [Compound I-1]
Geranium pusillum [1]; 480 h, PRE, GERPU, 20 DAT
  inhibition at 4 g/ha: 50%
Geranium pusillum [1]; GERPU PRE, use rate 1 gai/ha
  inhibition at 1 g/ha: 0%
Geranium pusillum [1]; GERPU PRE
  inhibition at 4 g/ha: 20%
Geranium pusillum [1]; PRE, GERPU
  inhibition at 4 g/ha: 10%
Setaria viridis
  inhibition at 2 g/ha: 20%
Euphorbia heterophylla [2]; EPHHL PRE, use rate 4 gai/ha
  % activity: 20%
Euphorbia heterophylla [2]; Euphorbia heterophylla, pre-emergence, 480 h, PRE, EPHHL, use rate 16 gai/ha, 20 DAT
  inhibition at 16 g/ha: 60%
Euphorbia heterophylla [2]; Euphorbia heterophylla, pre-emergence, EPHHL PRE, use rate 4 gai/ha
  inhibition at 4 g/ha: 25%
Euphorbia heterophylla [2]; Euphorbia heterophylla, pre-emergence, PRE, EPPHL, use rate 1 gai/ha, read-out: % activity
  inhibition at 1 g/ha: 0%
Euphorbia heterophylla [2]; Euphorbia heterophylla, pre-emergence, PRE, EPPHL, use rate 4 gai/ha
  inhibition at 4 g/ha: 70%
Abutilon theophrasti [3]; 480 h, 20 DAT
  inhibition at 2 g/ha: 30%
Abutilon theophrasti [3]; [7]
  inhibition at 4 g/ha: 50%
Abutilon theophrasti [3]; use rate 1 gai/ha
  inhibition at 1 g/ha: 10%
Abutilon theophrasti [3]
  inhibition at 2 g/ha: 10%
Digitaria sanguinalis; 480 h, POST, DIGSA, 20 DAT
  inhibition at 2 g/ha: 0%
  inhibition at 4 g/ha: 30%
Digitaria sanguinalis; DIGSA POST
  inhibition at 1 g/ha: 5%
  inhibition at 4 g/ha: 25%
Digitaria sanguinalis; POST, DIGSA
  inhibition at 1 g/ha: 0%
  inhibition at 2 g/ha: 10%
Lolium multiflorum; 480 h, PRE, LOLMU, 20 DAT
  inhibition at 1 g/ha: 40%
Lolium multiflorum; 480 h, PRE, LOLMU, use rate 2 gai/ha, 20 DAT, read-out: % activity
  inhibition at 2 g/ha: 50%
Lolium multiflorum; LOLMU PRE
  inhibition at 1 g/ha: 20%
Lolium multiflorum; LOLMU PRE, use rate 4 gai/ha
  inhibition at 4 g/ha: 85%
Lolium multiflorum; PRE, LOLMU
  inhibition at 1 g/ha: 35%
Alopecurus myosuroides; ALOMY PRE, use rate 1 gai/ha
  % activity: 30%
Alopecurus myosuroides; Alopecurus myosuroides, pre-emergence, 480 h, PRE, ALOMY, use rate 1 gai/ha, 20 DAT
  inhibition at 1 g/ha: 10%
Alopecurus myosuroides; Alopecurus myosuroides, pre-emergence, ALOMY PRE, use rate 1 gai/ha
  inhibition at 1 g/ha: 15%
Alopecurus myosuroides; Alopecurus myosuroides, pre-emergence, ALOMY PRE, use rate 4 gai/ha
  inhibition at 4 g/ha: 90%
Geranium pusillum [4]; 480 h, POST, GERPU, use rate 2 gai/ha, 20 DAT, read-out: % activity
  inhibition at 2 g/ha: 0%
Geranium pusillum [4]; 480 h, POST, GERPU, 20 DAT
  inhibition at 4 g/ha: 0%
Geranium pusillum [4]; 480 h, POST, GERPU, use rate 8 gai/ha, 20 DAT, read-out: % activity
  inhibition at 8 g/ha: 50%
Geranium pusillum [4]; 480 h, POST, GERPU, use rate 16 gai/ha, 20 DAT
  inhibition at 16 g/ha: 70%
Geranium pusillum [4]; GERPU POST
  inhibition at 4 g/ha: 55%
Geranium pusillum [4]; POST, GERPU, use rate 1 gai/ha
  inhibition at 1 g/ha: 30%
Abutilon theophrasti [5]; 480 h, PRE, ABUTH, use rate 2 gai/ha, 20 DAT, read-out: % activity
  inhibition at 2 g/ha: 65%
Abutilon theophrasti [5]; 480 h, PRE, ABUTH, use rate 4 gai/ha, 20 DAT
  inhibition at 4 g/ha: 75%
Abutilon theophrasti [5]; ABUTH PRE, use rate 1 gai/ha, read-out: % activity
  inhibition at 1 g/ha: 75%
Galium aparine
  inhibition at 1 g/ha: 0%
Euphorbia heterophylla [6]; 480 h, 20 DAT
  inhibition at 2 g/ha: 50%
Euphorbia heterophylla [6]; [7]
  inhibition at 4 g/ha: 60%
Euphorbia heterophylla [6]
  inhibition at 2 g/ha: 40%
